The record followed here is ChEMBL document CHEMBL3525952, “A Baeyer-Villiger oxidation specifically catalyzed by human flavin-containing monooxygenase 5” (Drug Metab Dispos, 2011).

A short description of data set [1]: Retention time of the compound by HPLC analysis. In kind it is physicochemical.
Data set [2] addresses T1, Flavin-containing monooxygenase 5 (Homo sapiens, UniProt P49326).
T1 sequence (P49326 whole entry): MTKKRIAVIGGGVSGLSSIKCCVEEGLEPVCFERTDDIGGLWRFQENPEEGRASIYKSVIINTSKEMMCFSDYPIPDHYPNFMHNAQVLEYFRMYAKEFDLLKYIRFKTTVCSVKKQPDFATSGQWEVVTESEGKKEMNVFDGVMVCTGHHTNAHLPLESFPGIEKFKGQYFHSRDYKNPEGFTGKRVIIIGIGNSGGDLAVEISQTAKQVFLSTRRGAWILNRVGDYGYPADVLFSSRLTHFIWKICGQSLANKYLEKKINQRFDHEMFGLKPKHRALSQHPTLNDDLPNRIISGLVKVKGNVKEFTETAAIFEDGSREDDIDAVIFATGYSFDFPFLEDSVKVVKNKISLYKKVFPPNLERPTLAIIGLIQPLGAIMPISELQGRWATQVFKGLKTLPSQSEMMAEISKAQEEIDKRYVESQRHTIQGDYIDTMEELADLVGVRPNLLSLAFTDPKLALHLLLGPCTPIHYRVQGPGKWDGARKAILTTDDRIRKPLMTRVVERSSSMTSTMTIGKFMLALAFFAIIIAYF
As to the kind of experiment: Drug metabolism assessed as human recombinant FMO5-mediated compound formation from 50 uM E7016 in presence of human liver cytosolic fractions after 60 mins by LC-MS/MS method. Conditions: recombinant enzyme, 1 h. In kind it is ADME, tissue-based.

Data set [3] is described as follows: Drug level in dog liver S9 fraction treated with 50 uM E7016 after 60 mins in presence of NADP+ by LC-MS/MS method. The class given is ADME, subcellular, Canis lupus familiaris. Conditions: s9, 1 h.
The subject of data set [4] is Hepatocyte. As to the kind of experiment: Drug level in human hepatocytes treated with 50 uM E7016 after 120 mins in presence of NADPH by LC-MS/MS method. The conditions noted are these: 2 h. The class given is ADME, cell-based.
Data set [5] concerns Hepatocyte. As to the kind of experiment: Drug level in rat hepatocytes treated with 50 uM E7016 after 120 mins in presence of NADPH by LC-MS/MS method. Conditions: 2 h. The class given is ADME, cell-based.
Data set [6] is described as follows: Drug level in dog liver S9 fraction treated with 50 uM E7016 after 60 mins in presence of NAD+ by LC-MS/MS method. Conditions: s9, 1 h. The class given is ADME, subcellular, Canis lupus familiaris.
The nature of data set [7]: Drug level in human liver S9 fraction treated with 50 uM E7016 after 60 mins in presence of NADP+ by LC-MS/MS method. In kind it is ADME, subcellular. Conditions: s9, 1 h.
Data set [8] has as its system Liver microsome. As to the kind of experiment: Drug level in dog liver microsomes treated with 10 uM ER-879819 after 60 mins in presence of NADH by LC-MS/MS method. Conditions: 1 h. The class given is ADME, Canis lupus familiaris. On the technique in general: Liver microsomes are vesicles of endoplasmic reticulum, rich in cytochrome P450 enzymes.
Data set [9] concerns the target T1, Flavin-containing monooxygenase 5. As to the kind of experiment: Drug level assessed as human recombinant FMO5-mediated compound formation from 10 uM ER-879819 in presence NADPH after 60 mins by LC-MS/MS method. The class given is ADME. The conditions noted are these: recombinant enzyme, 1 h.
For data set [10], the system named is Liver microsome. As to the kind of experiment: Drug level in human liver microsomes treated with 10 uM ER-879819 after 60 mins in presence of NADH by LC-MS/MS method. The conditions noted are these: 1 h. The class given is ADME.
In data set [11] the target is T1, Flavin-containing monooxygenase 5. As to the kind of experiment: Drug level assessed as human recombinant FMO5-mediated compound formation from 10 uM ER-879819 in presence NADH after 60 mins by LC-MS/MS method. Conditions: recombinant enzyme, 1 h. The class given is ADME.
For data set [12] the target is unchanged. As to the kind of experiment: Drug metabolism assessed as human recombinant FMO5-mediated compound formation from 50 uM E7016 in presence of dog liver cytosolic fractions after 60 mins by LC-MS/MS method. In kind it is ADME, tissue-based. The conditions noted are these: recombinant enzyme, 1 h.
For data set [13] the target is unchanged. As to the kind of experiment: Drug metabolism assessed as human recombinant FMO5-mediated compound formation from 50 uM E7016 in presence of rat liver cytosolic fractions after 60 mins by LC-MS/MS method. The class given is ADME, tissue-based. Conditions: recombinant enzyme, 1 h.
A short description of data set [14]: Drug level in dog hepatocytes treated with 50 uM E7016 after 120 mins in presence of NADPH by LC-MS/MS method. The class given is ADME, cell-based, Canis lupus familiaris, Hepatocyte. Conditions: 2 h.
Data set [15] can be described thus: Drug level in human liver S9 fraction treated with 50 uM E7016 after 60 mins in presence of NAD+ by LC-MS/MS method. The class given is ADME, subcellular. The conditions noted are these: s9, 1 h.

In the case of `Cc1ccc2c(c1)-c1n[nH]c(=O)c3cccc(c13)O2`, the Retention_time in [1] amounted to 10.7 min.
As to `O=C(O)CCN(CCO)Cc1ccc2c(c1)-c1n[nH]c(=O)c3cccc(c13)O2`, the Drug metabolism entry in data set [2], in [3], in data set [4], in data set [5], in [6] and in [7] was “metabolite_detected” throughout. Moreover, the Drug metabolism result in [8], in data set [9], in [10], in [11], in [12] and in [13] was “metabolite_detected” throughout. For the same molecule, the Drug metabolism entry in data set [14] and in data set [15] was “metabolite_detected” throughout.
